Legend:
[1] = tested on: Apis mellifera Carniolan foraging worker honeybees; test: Choice test in free-flight box apparatus; assay type: in vivo; details: for Repellence Score: percent food-weight change vs corresponding dishes in preceding test
Procedure: To determine whether living honeybees will choice to move towards a source of a candidate compound, these compounds were assayed using a choice test in a free-flight box apparatus.
All tests were done in a free-flight box apparatus. The apparatus comprises a 244 cm long×46 cm deep×30 cm high clear plastic box including two equally-sized independent testing chambers, each with 10 cm diameter air inlets that admit filtered room air, separated by a smaller central chamber with a screened air outlet to each testing chamber. Air can be pulled through the sealed box via a 10 cm diameter duct from the air outlet using an AQE Fume Fighter 500 fume extractor (BPA Air Quality Solutions, LLC, Charleston, S.C.), which removes the test odors using activated charcoal and HEPA filters. The box is housed in an environmentally controlled room with overhead illumination timed to correspond to the current ambient light cycle including 2 additional sets of lights timed to approximate crepuscular lighting conditions. The bottom of the apparatus was lined with clean absorbent paper marked with a 4×9 grid pattern, forming 12 cm×12 cm squares with marked coordinates.
Apis mellifera Carniolan foraging worker honeybees were obtained from a local apiary (typically 60 bees per shipment). Thirty honeybees were put into each testing chamber and were allowed to acclimate for 24 hours with food and water freely available.
At the beginning of each test day all food was removed from the test chamber, but water was continually available throughout all tests. For each test, approximately 0.3 g of organic, raw orange blossom honey was added to each clean small plastic weigh boat (Cole-Palmer). The honey boats were placed in small plastic culture dishes, which were distributed in the marked squares in the chambers. The positions of the dishes on the grid for a set of trials was chosen to avoid the bees' preferred resting area so that they had to find the food actively, but the same dish positions were maintained for a given set of trials. […] The honey in each boat was weighed on an analytical balance before and after the test, with the screened sample as a control for evaporative loss. The fume extractor was left off during the experimental trails, and was turned on to clear the air after the test dishes were covered and removed from the chamber at the end of each trial.
Based on the observation that bees tend to return to dishes in the same position where they have fed before, each set of trials with each group of bees began with “Pattern Identification” tests to see which dishes lose the most weight, reflecting the most feeding. Once bees were consuming an acceptable amount in 10-15 min, typically in 1-2 trials, we began a set of test compound trials. The test compound was pipetted onto pieces of filter paper placed on the dish bottom below the boat containing a fresh, weighed honey sample so that the test compound was inaccessible to the bees. We used 2 μL of a candidate compound at a concentration of 0.05-0.5%, in Triton X-100 or paraffin oil, on each of four pieces of filter paper per dish. The test-solution dishes were set at the same positions as the one or two dishes favored in the preceding Pattern Identification trial. To eliminate interference from the solvent, the other dishes without the test substance contained the same volume of the appropriate solvent on filter papers as the test solution dishes. The bees were allowed to feed for 10-15 minutes. Bee movements were recorded by a small, wide-angle digital video camcorder (HD Hero 960; GoPro, Halfmoon Bay, Calif.) placed on a tripod in front of the test chamber. The bees were given a brief rest while the honey was weighed and a second test was begun with fresh dishes, except that the test compound-containing dish or dishes were placed at whichever positions were most visited in the preceding test. […] The bees were then rested for 1-3 hours and a subsequent set of trials begun with another Pattern Identification. […]

[2] = cited from earlier work
[3] = tested on: Apis mellifera Carniolan foraging worker honeybees; test: Proboscis extension response (PER) assay in bees conditioned to 2-heptanone; assay type: in vivo; details: final compound concentration 0.5% (TRITON X-100/water), 4 s exposure; only bees PER-positive to 2-heptanone and negative to controls counted
Procedure: To determine whether a living honeybee can recognize a candidate compound, these compounds were tested using a proboscis extension response (PER) assay using classical conditioning approaches. Proboscis extension response conditioning is a case of appetitive learning, in which bees learn to associate odor stimuli with sucrose reward in the laboratory. In this case, bees were conditioned to produce a PER to 2-heptanone as the conditioned stimulus and a sugar reward as the unconditioned stimulus. These trained bees were then exposed to an odor pulse of a candidate compound to test whether a candidate compound would also produce a PER. If the candidate compound “mimics” 2-heptanone then the honeybee will extend its proboscis.
For conditioning procedures, Apis mellifera Carniolan foraging worker honeybees were obtained from a local apiary (typically 60 bees per shipment). The honeybees were held overnight in insect cages with food and water freely available, in an environmentally controlled room on a light cycle similar to the ambient cycle at the time of the assay.
For conditioning procedures, all tests were done in an odorant delivery apparatus set inside a fume hood. The apparatus comprised a set of open-ended, horizontal, 3 cm diameter by 10 cm long plastic tubes. Each tube was designed where a honeybee could be positioned at the distal end of a tube, with the opening at the other end of the tube located proximal to an inlet of the fume hood. To deliver an odorant, room air was pumped by a diaphragm pump through a particle filter via 0.25 inch plastic tubing at approximately 0.7 m/sec. The air flow passes into the headspace above an odorant (0.5% [v/v]2-heptanone dissolved in odorless light paraffin oil) contained in a 100 mL bottle. The headspace air then passes through another plastic tube to a manifold of 4-way valves, each of which was attached near the proximal end of a plastic tube containing a bee. Each bee was exposed separately for a desired time period to the odorant by opening and closing the appropriate valve. When each valve was closed, the odor was flushed away immediately by the continuous fume hood air stream.
To train a honeybee to respond to a conditioned and unconditioned stimuli, bees were placed, without anesthesia, in individual 1.5 mL micro-centrifuge holding tubes and held overnight without access to food or water. The holding tubes containing the starved bees were placed in racks in groups of eight. One rack at a time was placed behind the odorant delivery apparatus so that each bee's head is centered at the distal end of a horizontal plastic tube. Each bee was exposed to the 2-heptanone odorant alone for four seconds, and then while being fed an 80% sucrose solution for and additional three seconds. The sucrose solution was delivered on a piece of saturated filter paper held in forceps. […] Positive and negative responses were recorded. A positive PER was scored when a bee extended its proboscis before the sucrose appeared. In a typical trial, 48 individual bees were subjected to conditioning. Six rounds of training were done before testing began, and typically a majority of the bees were successfully conditioned by the second or third round of training.
After conditioning, honeybees were tested with the candidate compounds the same day or on the following day or, most commonly, both. When held overnight, bees were fed with sucrose and kept in their holding tubes. When tested the day after training, bees were given one or more rounds of conditioning with 2-heptatone to refresh their memories. Candidate compounds stocks were made at 5% (w/v) in polyoxyethylene octyl phenyl ether (TRITON® X-100), a non-ionic detergent/surfactant, and stored at 4° C. This detergent is similar to substances used as carriers for a variety of commercial pest-control agents, can act as a solvent for both hydrophilic and hydrophobic substances, and is itself nearly odorless. […]

[4] = tested on: OBP2; test: Fluorescent-quench ligand-protein-binding assay (OBP2 binding screen); design: species or system Apis mellifera
Description: To identify a honeybee repellent disclosed herein, candidate compounds were screened based upon the fact that 2-heptanone is an established repellent of bees. 2-heptanone is thought to mediate its behavioral response through binding to a specific odorant-binding protein called OBP2. Therefore compounds that bind OBP2 have the potential to act as odor “mimics” of 2-heptanone. By utilizing a fluorescent-quench, ligand-protein-binding assay, 30,000 compounds from the DIVERSET® library (ChemBridge Corp., San Diego, Calif.), a chemical library, were screened and over 150 candidate compounds were isolated that bind OBP2 (Table 1). Such assays are generally known in the art. See, e.g., Briand, et al., Ligand-Binding Properties and Structural Characterization of a Novel Rat Odorant-Binding Protein Variant, Eur. J. Biochem. 267(10): 3079-3089 (2000); Briand, et al., Ligand Binding and Physico-Chemical Properties of ASP2, A Recombinant Odorant-Binding Protein From Honeybee (Apis mellifera L.), Eur. J. Biochem. 268(3): 752-760 (2001); Briand, et al., Characterization of a Chemosensory Protein (ASP3c) from Honeybee (Apis mellifera L.) as a Brood Pheromone Carrier, Eur. J. Biochem. 269(18): 4586-4596 (2002), each of which is hereby incorporated by reference in its entirety.

[5] = amount 0.5%, negative = increase in food consumption

Row | Structure (SMILES) | Repellence Score [1, 5] | solubility in alcohol or ether ([2]; alcohol or ether) | solubility in water ([2]; water) | 2-heptanone positive bees testing positive to compound [3] | OBP2 binding characteristic of compound [4] | Effectiveness at 10-fold lower concentration ([1]; 0.05% compared with 0.5%) | Repellence Score ([1]; amount 0.05%) | Repellent or attractant effect in choice test (in words) ([1]; reduction of feeding at dishes most visited in preceding test)
1 | CCCCCC(C)=O [2-heptanone] | 54.6% | soluble | very slightly soluble | – | – | – | – | –
2 | O=C1OC(c2ccccc2)=NC1=Cc1cccs1 [compound 9, 2-phenyl-4-(2-thienylmethylene)-1,3-oxazol-5(4H)-one] | 43.3% | – | – | 9.7% | Moderate (Moderate, indicates that 50% or less of the compound bound to OBP2.) | – | – | –
3 | O=[N+]([O-])c1ccc(C=Cc2ccc(O)cc2)cc1 [compound 2, 4-[2-(4-nitrophenyl)vinyl]phenol] | 37.6% | – | – | 31.5% | Moderate (Moderate, indicates that 50% or less of the compound bound to OBP2.) | significantly more effective | 57.7% | –
4 | Cc1cc(C)c2c(N)c(C(=O)c3ccc(Cl)cc3)sc2n1 [compound 8, (3-amino-4,6-dimethylthieno[2,3-b]pyridin-2-yl)(4-chlorophenyl)methanone] | −10.7% | – | – | 14.4% | Moderate (Moderate, indicates that 50% or less of the compound bound to OBP2.) | – | – | slightly attractive
5 | O=C(NNC1=C(C(=O)C(F)(F)F)CCC1)c1ccc(Br)cc1 [compound 36] | 56.3% | – | – | 24.3% | Moderate (Moderate, indicates that 50% or less of the compound bound to OBP2.) | – | – | –

— patent US10098352B2, “Honeybee repellents and uses thereof” (Inscent, Inc., priority 2011, dated 2018)
